Data set [1] relates to five tumor cell lines (HTB72, CRL1435, CRL5800, HCT116, MCF7). Kind of data set: Caspase inhibitor z-VAD.fmk with RPL41 (morphology and Δψm assays). In kind it is cell-based. The following applies: Z-VAD.fmk 50 μM with RPL41 6.7 μM, 8 hours. As for the experimental part: FIG. 10—RPL41 induced cell death is caspase independent. […].
. The cell death induced by RPL41, therefore, is likely to be caspase-independent. A broad-spectrum caspase inhibitor z-VAD.fmk was also incubated with five tumor cell lines, in the presence of RPL41, to determine whether the inhibition of caspases will attenuate RPL41 induced cell death. […]

A short description of data set [2]: Isoelectric point of peptide. Format: physicochemical.
The test system of data set [3] is 24 tumor cell lines of various tissue types (ATCC). Format: cell-based.

Peptide text beside a SMILES is read from it. * marks the point of attachment. Cbz = O=C(OCc1ccccc1)*; CH2F = FC*

The values below come from patent publication US7183257B2, “Use of RPL41 to treat infections and inhibit cancer” (priority 2004, dated 2007).

On to `COC(=O)C[C@H](NC(=O)[C@H](C)NC(=O)[C@@H](NC(=O)OCc1ccccc1)C(C)C)C(=O)CF` [z-VAD.fmk] (Cbz-Val-Ala-Asp(OMe)-CH2F), for which the “suppression of RPL41 induced cell death” value in data set [1] is “failed to suppress the RPL41 induced cell death”.

Compound “MLISSGLKDGIRSGI [control peptide unrelated to RPL41]” returned a pI in data set [2] of 8.5. Further, the “effect on tumor cell growth” value in data set [3] (concentration ten times higher than that of RPL41) is “no effect on tumor cell growth”.

On to “NH2-KARMRMKRKLRKRMRKRQRSRKWKR-OH (H-KARMRMKRKLRKRMRKRQRSRKWKR-OH)”, for which the “inhibition effect on tumor cell growth after pre-treatment of peptide with proteases” value in data set [3] (peptides pre-treated with proteases (DIGEST-ALL, Zymed)) is “completely abolished”.
